Experimental findings from patent publication US10105357B2, “Indication of antibiotic drugs for preparation of cancer inhibition pharmaceutical composition” (LAUNX BIOMEDICAL CO., LTD., priority 2014, dated 2018) are described below.

Structures can show the parent of a compound that is named as a salt. Where two headings read alike, the source gives them in different places.

Holding throughout (format): cell-based, human
In one assay the test system is cancer cell lines. Kind of assay: Cell viability analysis (WST-1) on cancer cell lines. As to conditions: drug 10 μM, 72 hours; for inhibition effect on different cancer cell lines: WST-1, Table 3; for Inhibitory effect on cancer cell line: WST-1, OD450 nm, Table 2: drugs which do not have significant inhibitory effect. In general terms: Formazan colour is commonly taken as a measure of viable cells.

The test system of assay [1] is LoVo (Colorectal Adenocarcinoma). Kind of assay: Cell viability analysis, colon cancer LoVo. As to conditions: Homo sapiens, LoVo.
The subject of assay [2] is HepG2 (Hepatocellular Carcinoma). The experiment in a line: Cell viability analysis, hepatic cancer HepG2. As to conditions: Homo sapiens, drug 10 μM, 72 hours, WST-1, OD450 nm, read-out: cell viability (survival rate), HepG2.
The test system of assay [3] is MKN-45 (Gastric Adenocarcinoma). The experiment in a line: Cell viability analysis, gastric cancer MKN-45. As to conditions: Homo sapiens, drug 10 μM, 72 hours, WST-1, OD450 nm, read-out: cell viability (survival rate), MKN-45.
In assay [4] the test system is PC3 (p53−) (Prostate Adenocarcinoma). The experiment in a line: Cell viability analysis, prostate cancer PC3. As to conditions: Homo sapiens, drug 10 μM, 72 hours, WST-1, OD450 nm, read-out: cell viability (survival rate), PC3.
Assay [5] has as its system A549 (Lung Adenocarcinoma). Kind of assay: Cell viability analysis, lung cancer A549. As to conditions: Homo sapiens, drug 10 μM, 72 hours, WST-1, OD450 nm, read-out: cell viability (survival rate), A549.
Assay [6] deals with HeLa (Cervix Adenocarcinoma). The experiment in a line: Cell viability analysis, cervical cancer HeLa. As to conditions: Homo sapiens, HeLa, drug 10 μM, 72 hours, WST-1, OD450 nm, read-out: cell viability (survival rate), HeLa.
Assay [7] has as its system A375 (Amelanotic Melanoma). The experiment in a line: Cell viability analysis, skin cancer A375. As to conditions: Homo sapiens, drug 10 μM, 72 hours, WST-1, OD450 nm, read-out: cell viability (survival rate), A375.
Assay [8] relates to TSGH-8301 (Urinary Bladder Carcinoma). Kind of assay: Cell viability analysis, bladder cancer TSGH-8301. As to conditions: Homo sapiens, drug 10 μM, 72 hours, WST-1, OD450 nm, read-out: cell viability (survival rate), TSGH.
Assay [9] deals with AGS (Gastric Adenocarcinoma). Kind of assay: Cell viability analysis, gastric cancer AGS. As to conditions: Homo sapiens, drug 10 μM, 72 hours, WST-1, OD450 nm, read-out: cell viability (survival rate), AGS.
For assay [10], the system named is HI650 (Lung Adenocarcinoma). Kind of assay: Cell viability analysis, lung cancer HI650. As to conditions: Homo sapiens, drug 10 μM, 72 hours, WST-1, OD450 nm, read-out: cell viability (survival rate), H1650.
Assay [11] has as its system MCF7 (Mammary Gland, Adenocarcinoma). Kind of assay: Cell viability analysis, breast cancer MCF7. As to conditions: Homo sapiens, drug 10 μM, 72 hours, WST-1, OD450 nm, read-out: cell viability (survival rate), MCF7.
Assay [12] concerns HL-60 (Acute Promyelocytic Leukemia). Kind of assay: Cell viability analysis, leukemia HL-60. As to conditions: Homo sapiens, drug 10 μM, 72 hours, WST-1, OD450 nm, read-out: cell viability (survival rate), HL-60.
The mark [13] stands for this setting: drug 10 μM, 72 hours, WST-1, OD450 nm, read-out: cell viability (survival rate), LoVo.

With Meclocycline Sulfosalicylate, the “inhibition effect on different cancer cell lines” value with cancer cell lines is listed as “significant inhibition effect”.
Still for that read-out and setting: then `CCn1cc(C(=O)O)c(=O)c2cc(F)c(N3CCN(C)CC3)cc21` [Pefloxacin mesylate], with “significant inhibition effect”.
Regarding `CCn1cc(C(=O)O)c(=O)c2cc(F)c(N3CCNC(C)C3)c(F)c21` (stereo not drawn) [Lomefloxacin hydrochloride (Maxaquin), Lomefloxacin hydrochloride], in the assay with cancer cell lines, the “inhibition effect on different cancer cell lines” value is given as “significant inhibition effect”.
Take `CC1(C)[C@H](C(=O)[O-])N2C(=O)C[C@H]2S1(=O)=O.[Na+]` [Sulbactam sodium (Unasyn), Sulbactam sodium]: the “inhibition effect on different cancer cell lines” value in the assay on cancer cell lines was “significant inhibition effect”.
Same read-out and setting: the result for `NNC(=O)c1ccncc1.Nc1ccc(C(=O)O)c(O)c1` [Pasiniazid] reads “significant inhibition effect”; that for `NCC[C@H](O)C(=O)N[C@@H]1C[C@H](N)[C@@H](O[C@H]2O[C@H](CN)[C@@H](O)[C@H](O)[C@H]2O)[C@H](O)[C@H]1O[C@H]1O[C@H](CO)[C@@H](O)[C@H](N)[C@H]1O.O=S(=O)(O)O.O=S(=O)(O)O` [Amikacin sulfate], “significant inhibition effect”; that for `N[C@@H]1CONC1=O` [D-Cycloserine], “significant inhibition effect”.
Consider Teicoplanin, for which the “inhibition effect on different cancer cell lines” value in the assay on cancer cell lines is “significant inhibition effect”.
Still for that read-out and setting: the result for `CCCCCCCCCCCCCCCC(=O)O[C@@H]1[C@@H](O)[C@@H](O)[C@@H]([C@H](NC(=O)[C@@H]2C[C@@H](CCC)CN2C)[C@H](C)Cl)O[C@@H]1SC.Cl` [Clindamycin palmitate HCl] reads “significant inhibition effect”.
In the case of `CCN[C@@H]1C[C@H](N)[C@@H](O[C@H]2OC(CN)=CC[C@H]2N)[C@H](O)[C@H]1O[C@H]1OC[C@](C)(O)[C@H](NC)[C@H]1O.CCN[C@@H]1C[C@H](N)[C@@H](O[C@H]2OC(CN)=CC[C@H]2N)[C@H](O)[C@H]1O[C@H]1OC[C@](C)(O)[C@H](NC)[C@H]1O.O=S(=O)(O)O.O=S(=O)(O)O.O=S(=O)(O)O.O=S(=O)(O)O.O=S(=O)(O)O` [Netilmicin Sulfate], in the assay with cancer cell lines, the “Inhibitory effect on cancer cell line” value came out at 0 and the “inhibition effect on different cancer cell lines” value is “significant inhibition effect”.
For `CC1(C)[C@H](C(=O)O)N2C(=O)C[C@H]2S1(=O)=O` [Sulbactam], in the assay with cancer cell lines, the “inhibition effect on different cancer cell lines” value is “significant inhibition effect”. Also, the viability at 10 µM in assay [1] (setting [13]) was 81.7%.
With `CC(C)CN(C[C@@H](O)[C@H](Cc1ccccc1)NC(=O)O[C@H]1CO[C@H]2OCC[C@H]21)S(=O)(=O)c1ccc(N)cc1.CCO` [Darunavir Ethanolate (Prezista), Darunavir Ethanolate], the “inhibition effect on different cancer cell lines” value in the assay on cancer cell lines is recorded as “significant inhibition effect”.
For the molecule `CO/N=C(\C(=O)N[C@@H]1C(=O)N2C(C(=O)O)=C(Cn3ccc(=N)n3CCO)CS[C@H]12)c1csc(N)n1.O=S(=O)(O)O` [Cefoselis sulfate], in the assay with cancer cell lines, the “Inhibitory effect on cancer cell line” value amounted to 0 and the “inhibition effect on different cancer cell lines” value is “significant inhibition effect”.
In the case of Dabigatran [BIBR-1048 (Dabigatran)], in the assay on cancer cell lines, the “inhibition effect on different cancer cell lines” value is on record as “significant inhibition effect”.
Still for that read-out and setting: the result for `CN(C/C=C/C#CC(C)(C)C)Cc1cccc2ccccc12` [Terbinafine hydrochloride (Lamisil), Terbinafine hydrochloride] reads “significant inhibition effect”; that for `NC(=O)c1cnccn1` [Pyrazinamide (Pyrazinoic acid amide), Pyrazinamide], “significant inhibition effect”; that for Spiramycin, “significant inhibition effect”.
Take `Cc1nccn1CC1CCc2c(c3ccccc3n2C)C1=O` (stereo not drawn) [Ondansetron hydrochloride (Zofran), Ondansetron hydrochloride]: the “inhibition effect on different cancer cell lines” value with cancer cell lines is on record as “significant inhibition effect”.
As for `Nc1nc(NC2CC2)c2ncn([C@H]3C=C[C@@H](CO)C3)c2n1` [Abacavir sulfate], the viability at 10 µM amounted to 82.6% in assay [2] (HepG2, 72 h); 94.6% in assay [3] (MKN-45, 72 h); 76% in [4] (72 h); 87% in assay [5] (A549, 72 h); 84.2% in assay [6] (72 h); 57.2% in assay [7] (A-375, 72 h). The viability at 10 µM came out at 148% in assay [8] (72 h); 100% in assay [1] (72 h, read-out: cell viability (survival rate), LoVo, drug 10 μM, 72 hours, WST-1, OD450 nm); 97.1% in assay [9] (72 h); 67% in assay [10] (NCI-H1650, 72 h); 79.6% in [11] (MCF7, 72 h); 108% in [12] (HL-60, 72 h).
As to `Cl.NC1CCN(c2c(F)cc3c(=O)c(C(=O)O)cn(C4CC4)c3c2Cl)C1` (stereo not drawn) [Clinafoxacin HCl], the “inhibition effect on different cancer cell lines” value with cancer cell lines was “significant inhibition effect”.
Regarding `CCOC(=O)CCC(=O)O[C@H]1[C@H](O[C@@H]2[C@@H](C)[C@H](O[C@H]3C[C@@](C)(OC)[C@@H](O)[C@H](C)O3)[C@@H](C)C(=O)O[C@H](CC)[C@@](C)(O)[C@H](O)[C@@H](C)C(=O)[C@H](C)C[C@@]2(C)O)O[C@H](C)C[C@@H]1N(C)C` [Erythromycin Ethylsuccinate], the viability at 10 µM in assay [2] (HepG2) is 97.1%; in assay [3] (MKN-45), 129%; in assay [4], 112%; in assay [5] (A549), 90%; in assay [6], 148%; in assay [7] (A-375), 75%. Also, the viability at 10 µM was found to be 125% in assay [8]; 80% in assay [1] (setting [13]); 111% in assay [9]; 83.8% in [10] (NCI-H1650); 88.2% in assay [11] (MCF7); 83.6% in [12] (HL-60).
For the molecule Bismuth Subcitrate Potassium, in the assay with cancer cell lines, the “Inhibitory effect on cancer cell line” value was 0 and the “inhibition effect on different cancer cell lines” value is given as “significant inhibition effect”.

The viability is a read-out of living cells in per cent, often relative to untreated cells.
